One block for each compound: values may come before it.
Columns and labels:
RARs = assay: Co-transfection assay, RAR subfamily; type: cell-based, human
Procedure: (§1) Utilizing the "cis-trans" or "co-transfection" assay described by Evans et al., Science, 240:889-95 (May 13, 1988), the disclosure of which is herein incorporated by reference, the retinoid compounds of the present invention were tested and found to have strong, specific activity as either selective RAR agonists, selective RXR agonists, or as pan-agonist activators of both RAR and RXR receptors. This assay is described in further detail in U.S. Pat. Nos. 4,981,784 and 5,071,773, the disclosures of which are incorporated herein by reference.
(§2) The co-transfection assay provides a method for identifying functional agonists which mimic, or antagonists which inhibit, the effect of native hormones, and quantifying their activity for responsive IR proteins. In this regard, the co-transfection assay mimics an in vivo system in the laboratory. Importantly, activity in the co-transfection assay correlates very well with known in vivo activity, such that the co-transfection assay functions as a qualitative and quantitative predictor of a tested compounds in vivo pharmacology. See, e.g., T. Berger et al. 41 J. Steroid Biochem. Molec. Biol. 773 (1992), the disclosure of which is herein incorporated by reference.
(§3) In the co-transfection assay, a cloned cDNA for an IR (e.g., human RARα, RARβ, RXRγ) under the control of a constitutive promoter (e.g., the SV 40 promoter) is introduced by transfection (a procedure to induce cells to take up foreign genes) into a background cell substantially devoid of endogenous IRs. This introduced gene directs the recipient cells to make the IR protein of interest. A second gene is also introduced (co-transfected) into the same cells in conjunction with the IR gene. This second gene, comprising the cDNA for a reporter protein, such as firefly luciferase (LUC), is controlled by an appropriate hormone responsive promoter containing a hormone response element (HRE). This reporter plasmid functions as a reporter for the transcription-modulating activity of the target IR. Thus, the reporter acts as a surrogate for the products (mRNA then protein) normally expressed by a gene under control of the target receptor and its native hormone.
The co-transfection assay can detect small molecule agonists or antagonists of target IRs. Exposing the transfected cells to an agonist ligand compound increases reporter activity in the transfected cells. This activity can be conveniently measured, e.g., by increasing luciferase production, which reflects compound-dependent, IR-mediated increases in reporter transcription. […] . Increasing concentrations of a suspected antagonist will decrease the reporter signal (e.g., luciferase production). The co-transfection assay is therefore useful to detect both agonists and antagonists of specific IRs. Furthermore, it determines not only whether a compound interacts with a particular IR, but whether this interaction mimics (agonizes) or blocks (antagonizes) the effects of the native regulatory molecules on target gene expression, as well as the specificity and strength of this interaction. […]

RARs or RXRs = assay: Co-transfection assay, RAR and RXR receptors; type: cell-based; settings: for potency profile compared to 9-cis retinoic acid (in words): relative to 9-cis
Procedure: as §1, §2, §3
The co-transfection assay can detect small molecule agonists or antagonists of target IRs. Exposing the transfected cells to an agonist ligand compound increases reporter activity in the transfected cells. This activity can be conveniently measured, e.g., by increasing luciferase production, which reflects compound-dependent, IR-mediated increases in reporter transcription. […] . Increasing concentrations of a suspected antagonist will decrease the reporter signal (e.g., luciferase production). The co-transfection assay is therefore useful to detect both agonists and antagonists of specific IRs. Furthermore, it determines not only whether a compound interacts with a particular IR, but whether this interaction mimics (agonizes) or blocks (antagonizes) the effects of the native regulatory molecules on target gene expression, as well as the specificity and strength of this interaction.
To determine RAR and/or RXR agonist activity of the compounds of the present invention, the CV-1 cells were transiently transfected by calcium phosphate coprecipitation according to the procedure of Berger et al., 41 J. Steroid Biochem. Mol. Biol., 733 (1992) with the following receptor expressing plasmids: pRShRARα: Giguere et al., 330 Nature, 624 (1987); pRShRARβ and pRShRARγ, Ishikawa et al., 4 Mol. Endocrin., 837 (1990); pRShRXRα, Mangelsdorf et al., 345 Nature, 224 (1990); and pRSmRXRβ and pRSmRXRγ, Mangelsdorf et al., 6 Genes & Devel., 329 (1992), the disclosures of which are herein incorporated by reference.

[1] = test system: ornithine decarboxylase (ODC); assay: Ornithine decarboxylase assay: inhibition of TPA induction of ODC; type: cell-based
RAR and RXR receptors = assay: Binding to the RAR and RXR receptors; settings: relative to ATRA (RAR) and 9-cis (RXR)

SMILES: CC(/C=C/C=C1\CCOc2c1cc(C(C)(C)C)cc2C(C)(C)C)=C\C(=O)O [Compound 39, (2E,4E,6E)-6-(6,8,-Di-t-butylchroman-4-ylidene)-3-methylhexa-2,4,6-trienoic acid]
RAR activity (in words) (RARs): extremely potent RAR active compounds

activity on any of the RARs or RXRs (in words) (RARs or RXRs): no, or virtually no, activity
SMILES: COc1ccc(/C(C)=C/C=C/C(C)=C/C(=O)O)cc1 [B, (2E, 4E,6E)-3-methyl-7-(4-methoxyphenyl)octa-2,4,6-trienoic acid]

activity on any of the RARs or RXRs (in words) (RARs or RXRs): no, or virtually no, activity
SMILES: COc1ccc(/C(C)=C/C=C/C(C)=C/C(=O)O)cc1OC [A, (2E,4E,6E)-3-methyl-7-(3,4-dimethoxyphenyl)octa-2,4,6-trienoic acid]

activity on any of the RARs or RXRs (in words) (RARs or RXRs): no, or virtually no, activity
SMILES: COC(/C=C/C=C(\C)c1ccc(C(C)(C)C)cc1)=C/C(=O)O [D, (2E,4E,6E)-3-methoxy-7-(4-t-butylphenyl)octa-2,4,6-trienoic acid]

retinoid activity of ester analogs (in words) [1]: exhibit retinoid activity
SMILES: CCOC(=O)/C=C(C)/C=C/C=C(/C)c1cc(C(C)(C)C)cc(C(C)(C)C)c1 [Compound 8, Ethyl (2E, 4E, 6Z)-7-(3,5-di-t-butylphenyl)-3-methylocta-2,4,6-trienoate]

SMILES: CC(/C=C/C=C(\C)c1cc(C(F)(F)F)cc(C(F)(F)F)c1)=C\C(=O)O [Compound 41, (2E, 4E, 6E)-7-(3,5-Di-trifluoromethylphenyl)-3-methylocta-2,4,6-trienoic acid]
RAR activity (in words) (RARs): extremely potent RAR active compounds

retinoid activity of ester analogs (in words) [1]: exhibit retinoid activity
SMILES: CCOC(=O)/C=C(C)/C=C/C=C(\C)c1cc(C(C)(C)C)cc(C(C)(C)C)c1 [Compound 7, Ethyl (2E, 4E, 6E)-7-(315-di-t-butylphenyl)-3-methylocta-2,4,6-trienoate]

activity on any of the RARs or RXRs (in words) (RARs or RXRs): no, or virtually no, activity
SMILES: COc1cc(C)c(/C=C/C=C/C=C(\C)C(=O)O)c(C)c1C [C, (2E,4E,6E)-2-methyl-7-(2,3,6-trimethyl-4-methoxyphenyl)hepta-2,4,6-trienoic acid]

binding compared to ATRA and 9-cis (in words) (RAR and RXR receptors): equal or superior binding
potency profile compared to 9-cis retinoic acid (in words) (RARs or RXRs): superior potency profile
SMILES: C/C(=C/C=C/C(C)=C/C(=O)O)c1cc(C(C)(C)C)cc(C(C)(C)C)c1 [Compound 10, (2E, 4E, 6Z)-7-(3,5-Di-t-butylphenyl)-3-methylocta-2,4,6-trienoic acid]

potency profile compared to 9-cis retinoic acid (in words) (RARs or RXRs): superior potency profile
SMILES: C/C(=C/C=C/C(C)=C/C(=O)O)c1cc(C(C)C)cc(C(C)C)c1 [Compound 43, (2E, 4E, 6Z)-7-(3,5-Di-isopropylphenyl)-3-methylocta-2,4,6-trienoic acid]

SMILES: COc1c(C(C)(C)C)cc(/C(C)=C/C=C/C(C)=C/C(=O)O)cc1C(C)(C)C [Compound 47, (2E, 4E, 6E) -3-Methyl-7-(3,5-di-t-butyl-4-methoxyphenyl)octa-2,4,6-trienoic acid]
RAR activity (in words) (RARs): extremely potent RAR active compounds
RAR isoform selectivity (in words) (RARs): selectivity on RARβ and RARγ

From US6083977A, “Trienoic retinoid compounds and methods” (Ligand Pharmaceuticals Incorporated, priority 1995, dated 2000)
